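Compound exposure: 48 hours, 5 concentrations, 96-well plates. GI50 = concentration required for 50% inhibition of growth.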 The source made the active and inactive calls. Rule as the data show it: active = GI50 up to about 1.1 µM and inactive = higher.
Tests used:
Assay in all cases: growth of human tumour cells (NCI), 48 h
HOP-92 = tested on: HOP-92
KM12 = tested on: KM12
OVCAR-8 = tested on: OVCAR-8
HCC 2998 = tested on: HCC 2998
U-251 = tested on: U-251
CCRF-CEM = tested on: CCRF-CEM
NCI-H460 = tested on: NCI-H460
SR = tested on: SR
MOLT-4 = tested on: MOLT-4
SK-MEL-2 = tested on: SK-MEL-2
786-0 = tested on: 786-0
HCT-116 = tested on: HCT-116
MCF7 = tested on: MCF7
MDA-MB-435 = tested on: MDA-MB-435
MDA-N = tested on: MDA-N
BT-549 = tested on: BT-549
PC-3 = tested on: PC-3
CAKI-1 = tested on: CAKI-1
OVCAR-4 = tested on: OVCAR-4
K562 = tested on: K562
UACC-257 = tested on: UACC-257
SK-MEL-5 = tested on: SK-MEL-5
ACHN = tested on: ACHN
A549 = tested on: A549
LOX IMVI = tested on: LOX IMVI
SNB-19 = tested on: SNB-19
MDA-MB-231 = tested on: MDA-MB-231
HOP-62 = tested on: HOP-62
Malme-3M = tested on: Malme-3M
HT-29 = tested on: HT-29
OVCAR-5 = tested on: OVCAR-5
HCT-15 = tested on: HCT-15
TK-10 = tested on: TK-10
SK-MEL-28 = tested on: SK-MEL-28
SN12C = tested on: SN12C
SF-295 = tested on: SF-295
NCI/ADR-RES = tested on: NCI/ADR-RES
M14 = tested on: M14
COLO 205 = tested on: COLO 205
NCI-H23 = tested on: NCI-H23
UO-31 = tested on: UO-31
OVCAR-3 = tested on: OVCAR-3
HL-60 = tested on: HL-60
DU-145 = tested on: DU-145
EKVX = tested on: EKVX
RPMI-8226 = tested on: RPMI-8226
Hs-578T = tested on: Hs-578T
RXF 393 = tested on: RXF 393
IGROV-1 = tested on: IGROV-1
SK-OV-3 = tested on: SK-OV-3

**Q.** With `O=S1(=O)OCCOS(=O)(=O)C1Cc1nc2ccccc2[nH]1` as the compound, how does the GI50 (HOP-92) read?
**A.** The GI50 was 0.114 µM (active).

**Q.** And the GI50 (KM12)?
**A.** The GI50 was 68.2 µM (inactive).

**Q.** And the GI50 (OVCAR-8)?
**A.** The GI50 was 55.6 µM (inactive).

**Q.** And the GI50 (HCC 2998)?
**A.** Its GI50 is 54.7 µM (inactive).

**Q.** And the GI50 (U-251)?
**A.** The GI50 was 38.6 µM (inactive).

**Q.** What about the GI50 (CCRF-CEM) of the same compound?
**A.** The GI50 was 33 µM (inactive).

**Q.** And the GI50 (NCI-H460)?
**A.** Its GI50 is 28.2 µM (inactive).

**Q.** And the GI50 (SR)?
**A.** The GI50 was 28.6 µM (inactive).

**Q.** What about the GI50 (MOLT-4) of the same compound?
**A.** Its GI50 is 24.2 µM (inactive).

**Q.** What about the GI50 (SK-MEL-2) of the same compound?
**A.** The GI50 was 72.3 µM (inactive).

**Q.** What about the GI50 (786-0) of the same compound?
**A.** Its GI50 is 39.7 µM (inactive).

**Q.** What about the GI50 (HCT-116) of the same compound?
**A.** The GI50 was 23 µM (inactive).

**Q.** What about the GI50 (MCF7) of the same compound?
**A.** The GI50 was 33.7 µM (inactive).

**Q.** And the GI50 (MDA-MB-435)?
**A.** The GI50 was 51.2 µM (inactive).

**Q.** What about the GI50 (MDA-N) of the same compound?
**A.** Its GI50 is 22.3 µM (inactive).

**Q.** And the GI50 (BT-549)?
**A.** Its GI50 is > 10 µM (inactive).

**Q.** What about the GI50 (PC-3) of the same compound?
**A.** Its GI50 is 19.6 µM (inactive).

**Q.** What about the GI50 (CAKI-1) of the same compound?
**A.** Its GI50 is 27 µM (inactive).

**Q.** And the GI50 (OVCAR-4)?
**A.** Its GI50 is 44.2 µM (inactive).

**Q.** What about the GI50 (K562) of the same compound?
**A.** The GI50 was 34.5 µM (inactive).

**Q.** What about the GI50 (UACC-257) of the same compound?
**A.** The GI50 was 29.2 µM (inactive).

**Q.** What about the GI50 (SK-MEL-5) of the same compound?
**A.** The GI50 was 34.7 µM (inactive).

**Q.** What about the GI50 (ACHN) of the same compound?
**A.** Its GI50 is 32.1 µM (inactive).

**Q.** What about the GI50 (A549) of the same compound?
**A.** The GI50 was 44.6 µM (inactive).

**Q.** What about the GI50 (LOX IMVI) of the same compound?
**A.** The GI50 was 14.5 µM (inactive).

**Q.** What about the GI50 (SNB-19) of the same compound?
**A.** The GI50 was 37.2 µM (inactive).

**Q.** What about the GI50 (MDA-MB-231) of the same compound?
**A.** The GI50 was 43 µM (inactive).

**Q.** And the GI50 (HOP-62)?
**A.** The GI50 was 26.8 µM (inactive).

**Q.** And the GI50 (Malme-3M)?
**A.** The GI50 was > 100 µM (inactive).

**Q.** And the GI50 (HT-29)?
**A.** Its GI50 is 51.2 µM (inactive).

**Q.** What about the GI50 (OVCAR-5) of the same compound?
**A.** The GI50 was > 100 µM (inactive).

**Q.** What about the GI50 (HCT-15) of the same compound?
**A.** The GI50 was 26 µM.

**Q.** And the GI50 (TK-10)?
**A.** The GI50 was > 100 µM (inactive).

**Q.** And the GI50 (SK-MEL-28)?
**A.** Its GI50 is 97.1 µM (inactive).

**Q.** And the GI50 (SN12C)?
**A.** The GI50 was 35.2 µM (inactive).

**Q.** And the GI50 (SF-295)?
**A.** The GI50 was 24.7 µM (inactive).

**Q.** And the GI50 (NCI/ADR-RES)?
**A.** The GI50 was 30.3 µM (inactive).

**Q.** And the GI50 (M14)?
**A.** The GI50 was 44.8 µM (inactive).

**Q.** And the GI50 (COLO 205)?
**A.** Its GI50 is 83.2 µM (inactive).

**Q.** And the GI50 (NCI-H23)?
**A.** The GI50 was 41 µM (inactive).

**Q.** And the GI50 (UO-31)?
**A.** The GI50 was 75.7 µM (inactive).

**Q.** And the GI50 (OVCAR-3)?
**A.** Its GI50 is 45.8 µM (inactive).

**Q.** And the GI50 (HL-60)?
**A.** Its GI50 is 22.5 µM (inactive).

**Q.** What about the GI50 (DU-145) of the same compound?
**A.** The GI50 was > 100 µM (inactive).

**Q.** What about the GI50 (EKVX) of the same compound?
**A.** The GI50 was > 100 µM (inactive).

**Q.** What about the GI50 (RPMI-8226) of the same compound?
**A.** Its GI50 is 34.3 µM (inactive).

**Q.** Which results are given for `COC(C)(C)C1(O)CCC(C)CC1=O` (centres undefined)?
**A.** GI50 (HOP-92): > 100 µM (inactive); GI50 (Hs-578T): > 100 µM (inactive); GI50 (OVCAR-8): > 100 µM (inactive); GI50 (HCC 2998): > 100 µM (inactive); GI50 (U-251): > 100 µM (inactive); GI50 (RXF 393): > 100 µM (inactive); GI50 (NCI-H460): > 100 µM (inactive); GI50 (SR): > 100 µM (inactive); GI50 (MOLT-4): > 100 µM (inactive); GI50 (786-0): > 100 µM (inactive); GI50 (MDA-N): > 100 µM (inactive); GI50 (BT-549): > 100 µM (inactive); GI50 (PC-3): > 100 µM (inactive); GI50 (CAKI-1): > 100 µM (inactive); GI50 (IGROV-1): > 100 µM (inactive); GI50 (SK-MEL-5): > 100 µM (inactive); GI50 (SNB-19): > 100 µM (inactive); GI50 (SK-OV-3): > 100 µM (inactive); GI50 (HT-29): > 100 µM (inactive); GI50 (COLO 205): > 100 µM (inactive); GI50 (UO-31): > 100 µM (inactive); GI50 (OVCAR-3): > 100 µM (inactive); GI50 (HL-60): 85.7 µM (inactive)

Reference: ChEMBL document CHEMBL1201862, “PubChem BioAssay data set” (2004)
